Reference: PubChem BioAssay (NCI)
Where “and” joins values, the source holds several entries; their conditions need not be identical. Identical values can stand only once.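 Method: 48-hour compound exposure of cells in 96-well plates, five concentrations, linear interpolation of endpoints. The concentration for 50% growth inhibition is given as GI50. TGI: total growth inhibition.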

Assays:
Test in all cases: NCI tumour cell line growth inhibition, 48 h
[1] = system: 786-0 renal
[2] = system: A498 renal
[3] = system: HCC-2998 colon
[4] = system: LOX IMVI melanoma
[5] = system: RPMI-8226 leukemia
[6] = system: RXF 393 renal
[7] = system: SNB-19 CNS
[8] = system: UACC-62 melanoma
[9] = system: DMS 114 small cell lung
[10] = system: LXFL 529 NSCLC

Row | SMILES | GI50 [1] | TGI [1] | GI50 [2] | TGI [2] | GI50 [3] | TGI [3] | GI50 [4] | TGI [4] | GI50 [5] | TGI [5] | GI50 [6] | TGI [6] | GI50 [7] | TGI [7] | GI50 [8] | TGI [8] | TGI [9] | TGI [10]
1 | COc1cc2c(/C=N\N=C(N)N)c[nH]c2cc1C | 19.4 µM | 46.8 µM | 27.3 µM | 73.9 µM | 15.8 µM | 29.2 µM | 31.8 µM | > 100 µM | 14.3 µM | 27.4 µM | 62.1 µM | > 100 µM | 19.2 µM | 54.5 µM | 16 µM | 33 µM | – | –
2 | O=C(Nc1cc(Nc2ncccc2-c2ncnc3nc[nH]c23)ccc1F)c1cc(C(F)(F)F)cc(C(F)(F)F)c1 | 3.55 µM | 9.52 µM | 0.648 µM | 3.92 µM | 1.24 µM | 2.74 µM | 0.384 µM | 2.02 µM | 2.12 µM | 6.4 µM | 1.91 µM | 4.62 µM | 3.78 µM | > 10 µM | 0.38 µM | 2.32 µM | – | –
3 | CO[C@H]1Nc2c(ccc(C)c2O)C(=O)N2C=C(/C=C/C(N)=O)C[C@@H]12 | – | 2.03 µM | – | 0.495 µM | – | 0.132 µM | – | 1.29 µM | – | 8.51 µM | – | 0.233 µM | – | > 58.2 µM | – | 0.036 µM | 0.044 µM | –
4 | N[C@H](CCC(=O)N[C@@H](Cc1c[nH]c2ccccc12)C(=O)O)C(=O)O | > 100 µM | > 100 µM | > 100 µM | > 100 µM | > 100 µM | > 100 µM | > 100 µM | > 100 µM | > 100 µM | > 100 µM | > 100 µM | > 100 µM | > 100 µM | > 100 µM | > 100 µM | > 100 µM | – | –
5 | COC(=O)/C(=N/O)C(C(=O)C=C(C)C)C(=O)C(=O)Nc1nc2ccc([N+](=O)[O-])cc2s1 (stereo unspecified) | – | > 100 µM | – | 31 µM | – | > 100 µM | – | 93.1 µM | – | > 100 µM | – | – | – | > 100 µM | – | > 100 µM | – | > 100 µM
6 | O=C(c1ccco1)c1c(C(F)(F)F)n([O-])c2ccc(C(F)(F)F)cc2[n+]1=O | 0.426 µM | 0.831 µM | 1.41 µM | 2.76 µM | 1.04 µM | 2.5 µM | 0.127 µM | 0.257 µM | 0.383 µM | 1.68 µM | 0.179 µM | 0.512 µM | 1.51 µM | 2.92 µM | 1.11 µM | 2.32 µM | – | –
7 | Cc1cc(N/N=C/c2ccccn2)nc2ccccc12 | 0.384 µM | 12.4 µM | 0.633 µM | 7.05 µM | 0.462 µM | 16.1 µM | 0.413 µM | 10.9 µM | 0.41 µM | 12.5 µM | 0.321 µM | 4.87 µM | 0.535 µM | 26.3 µM | 0.406 µM | 3.36 µM | – | –
8 | COc1cc2c(Nc3cc(Cl)c(OC)c(Cl)c3)c(C#N)cnc2cc1OCCCN1CCN(C)CC1 | 1.73 µM | 4.54 µM | 0.904 µM | 2.61 µM | 1.56 µM | 4.1 µM | 1.06 µM | 2.43 µM | 1.47 µM | 4.79 µM | 1.01 µM | 2.5 µM | 4.57 µM | 14.9 µM | 2.73 µM | 7.9 µM | – | –
9 | CCCC(=O)C1=C(O)C(Cc2c(O)c(C)c(O)c(C(=O)CCC)c2O)=C(O)C(C)(C)C1=O | – | > 50 µM | – | > 50 µM | – | 34.2 µM | – | > 50 µM | – | > 50 µM | – | > 50 µM | – | > 50 µM | – | > 50 µM | – | –
10 | Cc1ccc(OCCOCCOCCOCCOc2ccc(C)n(O)c2=S)c(=S)n1O | 0.335 µM | > 100 µM | 0.323 µM | 10.9 µM | 0.25 µM | > 100 µM | 0.0481 µM | > 69.6 µM | 0.0267 µM | > 64 µM | 1.55 µM | 22.3 µM | 0.221 µM | > 100 µM | 0.115 µM | 40.5 µM | – | –
11 | C=CC(=O)N1CN(C(=O)C=C)CN(C(=O)C=C)C1 | 7.15 µM | 24.7 µM | 15.3 µM | 32.4 µM | 10.2 µM | 25.3 µM | 1.72 µM | 5.78 µM | 2.29 µM | 6.76 µM | 1.33 µM | 2.83 µM | 33.1 µM | > 100 µM | 3.49 µM | 12 µM | – | –
12 | CC1=C(C#N)C(=O)CC(c2ccc(Cl)cc2)N(C)N1 (stereo unspecified) | – | > 100 µM | – | > 100 µM | – | > 100 µM | – | > 100 µM | – | > 100 µM | – | > 100 µM | – | > 100 µM | – | – | > 100 µM | > 100 µM
13 | NCCNCC1CCNCC1 | – | > 100 µM | – | > 100 µM | – | > 100 µM | – | > 100 µM | – | > 100 µM | – | > 100 µM | – | > 100 µM | – | > 100 µM | – | –
14 | COc1ccc(-c2ccc3c(N4CCOC[C@@H]4C)nc(N4CCOC[C@@H]4C)nc3n2)cc1CO | 0.00494 µM and 0.0416 µM | > 45.1 µM | 0.00121 µM and < 0.01 µM | 0.00302 µM and < 0.0234 µM | 0.0094 µM and 0.0254 µM | 3.21 µM | 0.00476 µM and 0.028 µM | > 100 µM | 0.00363 µM and 0.0281 µM | – | 0.00244 µM and < 0.0105 µM | 0.00676 µM and 0.0643 µM | 0.00693 µM and 0.0491 µM | > 100 µM | 0.00337 µM and 0.019 µM | – | – | –
15 | CC(C)(C)[Si](C)(C)OC1[C@@H](CNC(=O)NC(=O)CCl)O[C@@H](n2cnc3c(N)ncnc32)[C@H]1O[Si](C)(C)C(C)(C)C (stereo partly specified) | 0.662 µM | 1.55 µM | 6.21 µM | 12.8 µM | 1.61 µM | 3.95 µM | 0.148 µM | 0.382 µM | 0.805 µM | 2.34 µM | 0.859 µM | 1.58 µM | 2.43 µM | 9.46 µM | 0.877 µM | 1.74 µM | – | –
16 | COc1ccc(-c2nn(-c3cccc(Cl)c3)cc2-c2cc(-c3ccccc3)[nH]c(=O)c2C#N)cc1 | 1.6 µM | 7.25 µM | 0.171 µM | 1.6 µM | 15.9 µM | > 50 µM | 8.97 µM | > 50 µM | 45.6 µM | > 50 µM | 0.897 µM | 2.18 µM | 2.76 µM | 38.6 µM | 2.26 µM | 11.1 µM | – | –
